From US6706664B1, “Benzoxazole compounds, process for the preparation thereof and herbicides” (UBE Industries, Ltd., priority 1999, dated 2004)

Key:
Set-up in all cases: key: 0: normal development; 1: Less damaged; 2: Slightly damaged; 3: Moderately damaged; 4: Severely damaged; 5: All killed
[1] = tested on: soybean; experiment: Foliar spread test for upland field; format: in vivo; details: foliar spray 500 ppm, 3 weeks, rank vs non-treated
Method in brief: (§1)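 Post-emergence foliar spray, 500 ppm (wettable powder in water + 0.5% surfactant), on ~2-week-old plants grown in volcanic ash soil; glasshouse, avg 25° C, 3 wk; visual damage score 0–5.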

[2] = tested on: cotton; experiment: Foliar spread test for upland field; format: in vivo; details: foliar spray 500 ppm, 3 weeks, rank vs non-treated
Method in brief: as §1

[3] = tested on: annual bluegrass; experiment: Foliar spread test for upland field; format: in vivo, Poa annua; details: foliar spray 500 ppm, 3 weeks, rank vs non-treated
Method in brief: (§2)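 Crops and weeds grown about 2 weeks in volcanic ash soil in a glasshouse, then sprayed with wettable-powder formulations diluted to 500 ppm in water with 0.5% surfactant. After 3 weeks at 25 °C, injury scored visually 0 (normal) to 5 (all killed).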

[4] = tested on: bulrush; experiment: Herbicidal test for paddy field; format: in vivo, Scrips juncoides; details: paddy field pot, 500 g/ha dropwise at 1.5 leaf stage of barnyardgrass, 3 weeks, rank vs non-treated
Method in brief: (§3)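 Flooded pots (3 cm water) of alluvial soil were sown with seeds or tubers, and wettable-powder formulations in 0.05% surfactant water were dripped in at 500 g/ha at the 1.5-leaf stage of barnyardgrass. Plants were kept 3 weeks in a glasshouse at an average 25° C. Damage was scored 0 (normal) to 5 (all killed) against untreated controls.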

[5] = tested on: Large crabgrass; experiment: Soil treatment test for upland field; format: in vivo, Digitaria adscendens; details: 500 g/ha, glass house 25° C., 3 weeks
Method in brief: (§4)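 Seeds planted in Wagner pots of Ube soil (alluvial) and covered. Wettable powder diluted in 0.05% surfactant water, sprayed uniformly onto soil at 500 g/ha effective rate. Grown 3 weeks, glasshouse, mean 25° C, then damage rated visually 0–5.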

[6] = tested on: common lambsquartes; experiment: Foliar spread test for upland field; format: in vivo, Chenopodium album; details: foliar spray 500 ppm, 3 weeks, rank vs non-treated
Method in brief: as §2

[7] = tested on: velvetleaf; experiment: Foliar spread test for upland field; format: in vivo, Abutilon theophrasti; details: foliar spray 500 ppm, 3 weeks, rank vs non-treated
Method in brief: as §2

[8] = tested on: blackgrass; experiment: Soil treatment test for upland field; format: in vivo, Alopecurus aegualis; details: 500 g/ha, glass house 25° C., 3 weeks
Method in brief: as §4

[9] = tested on: barnyardgrass; experiment: Foliar spread test for upland field; format: in vivo, Echinochloa crusgalli; details: foliar spray 500 ppm, 3 weeks, rank vs non-treated
Method in brief: as §2

[10] = tested on: velvetleaf; experiment: Soil treatment test for upland field; format: in vivo, Abutilon theophrasti; details: 500 g/ha, glass house 25° C., 3 weeks
Method in brief: as §4

[11] = tested on: barnyardgrass; experiment: Herbicidal test for paddy field; format: in vivo, Echinochloa crusgalli; details: paddy field pot, 500 g/ha dropwise at 1.5 leaf stage of barnyardgrass, 3 weeks, rank vs non-treated
Method in brief: as §3

[12] = tested on: Large crabgrass; experiment: Foliar spread test for upland field; format: in vivo, Digitaria adscendens; details: foliar spray 500 ppm, 3 weeks, rank vs non-treated
Method in brief: as §2

[13] = tested on: barnyardgrass; experiment: Soil treatment test for upland field; format: in vivo, Echinochloa crusgalli; details: 500 g/ha, glass house 25° C., 3 weeks
Method in brief: as §4

[14] = tested on: livid amaranth; experiment: Foliar spread test for upland field; format: in vivo, Amaranthus lividus; details: foliar spray 500 ppm, 3 weeks, rank vs non-treated
Method in brief: as §2

`CCC(Oc1ccc(F)c(C(F)(F)F)c1)c1nc2cc(Cl)ccc2o1` (stereo not drawn) [Compound 139] was tested, and the “Effects Soybean” value [1] was 5, the “Effects Cotton” value [2] was 3 and the “Effects Annual bluegrass” value [3] was 3. For the same compound, the “Effect Bulrush” value [4] was 5, the “Effects Large crabgrass” value [5] was 5 and the “Effects Common lambsquarters” value [6] was 5. For the same compound, the “Effects Velvetleaf” value [7] was 3, the “Effects Blackgrass” value [8] was 5 and the “Effects Barnyardgrass” value [9] was 2. For the same compound, the “Effects Velvetleaf” value [10] was 5, the “Effect Barnyardgrass” value [11] was 5 and the “Effects Large crabgrass” value [12] was 2. For the same compound, the “Effects Barnyardgrass” value [13] was 3 and the “Effects Livid amaranth” value [14] was 5.

`CCCC(Oc1ccc(F)c(C(F)(F)F)c1)c1nc2cc(C(F)(F)F)ccc2o1` (stereo not drawn) [Compound 199] was tested, and the “Effects Soybean” value [1] was 4, the “Effects Cotton” value [2] was 3 and the “Effects Annual bluegrass” value [3] was 2. The “Effect Bulrush” value [4] was 5, the “Effects Large crabgrass” value [5] was 5 and the “Effects Common lambsquarters” value [6] was 4. For the same compound, the “Effects Velvetleaf” value [7] was 4, the “Effects Blackgrass” value [8] was 2 and the “Effects Barnyardgrass” value [9] was 2. The “Effects Velvetleaf” value [10] was 5, the “Effect Barnyardgrass” value [11] was 4 and the “Effects Large crabgrass” value [12] was 2. For the same compound, the “Effects Barnyardgrass” value [13] was 2 and the “Effects Livid amaranth” value [14] was 4.

For `CCCC(Oc1ccc(F)c(C(F)(F)F)c1)c1nc2cc(F)c(Cl)cc2o1` (stereo not drawn) [Compound 494], the “Effects Cotton” value [2] was 2, the “Effect Bulrush” value [4] was 3 and the “Effects Large crabgrass” value [5] was 5. The “Effects Common lambsquarters” value [6] was 4, the “Effects Velvetleaf” value [7] was 2 and the “Effects Blackgrass” value [8] was 5. The “Effects Velvetleaf” value [10] was 3, the “Effect Barnyardgrass” value [11] was 5 and the “Effects Barnyardgrass” value [13] was 4. For the same compound, the “Effects Livid amaranth” value [14] was 5.

In the case of `CCCC(Oc1cccc(C(F)(F)F)c1)c1nc2cc(C(F)(F)F)ccc2o1` (stereo not drawn) [Compound 200], the “Effects Soybean” value [1] is reported as 3, the “Effects Cotton” value [2] is reported as 3 and the “Effects Annual bluegrass” value [3] is reported as 4. The “Effect Bulrush” value [4] was 2, the “Effects Large crabgrass” value [5] was 5 and the “Effects Common lambsquarters” value [6] was 4. The “Effects Velvetleaf” value [7] was 2, the “Effects Blackgrass” value [8] was 4 and the “Effects Barnyardgrass” value [9] was 2. The “Effects Velvetleaf” value [10] was 5, the “Effect Barnyardgrass” value [11] was 2 and the “Effects Large crabgrass” value [12] was 3. The “Effects Barnyardgrass” value [13] was 5 and the “Effects Livid amaranth” value [14] was 4.

With `CCCC(Oc1ccc(F)c(C(F)(F)F)c1)c1nc2cc(Cl)ccc2o1` (stereo not drawn) [Compound 141] the “Effects Soybean” value [1] was 4, the “Effects Cotton” value [2] was 3 and the “Effects Annual bluegrass” value [3] was 4. The “Effect Bulrush” value [4] was 5, the “Effects Large crabgrass” value [5] was 5 and the “Effects Common lambsquarters” value [6] was 4. For the same compound, the “Effects Velvetleaf” value [7] was 4, the “Effects Blackgrass” value [8] was 5 and the “Effects Barnyardgrass” value [9] was 4. The “Effects Velvetleaf” value [10] was 5, the “Effect Barnyardgrass” value [11] was 5 and the “Effects Large crabgrass” value [12] was 4. For the same compound, the “Effects Barnyardgrass” value [13] was 3 and the “Effects Livid amaranth” value [14] was 4.

With `CCCC(Oc1cccc(C(F)(F)F)c1)c1nc2cc(F)c(C(F)(F)F)cc2o1` (stereo not drawn) [Compound 474] the “Effects Annual bluegrass” value [3] was 3, the “Effects Large crabgrass” value [5] was 5 and the “Effects Common lambsquarters” value [6] was 5. The “Effects Velvetleaf” value [7] was 2, the “Effects Blackgrass” value [8] was 5 and the “Effects Velvetleaf” value [10] was 5. The “Effect Barnyardgrass” value [11] was 2, the “Effects Large crabgrass” value [12] was 5 and the “Effects Barnyardgrass” value [13] was 5. For the same compound, the “Effects Livid amaranth” value [14] was 5.

`CCC(Oc1cccc(C(F)(F)F)c1)c1nc2cc(Cl)ccc2o1` (stereo not drawn) [Compound 140] was tested, and the “Effects Soybean” value [1] was 3, the “Effects Cotton” value [2] was 3 and the “Effects Annual bluegrass” value [3] was 2. The “Effects Large crabgrass” value [5] was 5, the “Effects Common lambsquarters” value [6] was 4 and the “Effects Velvetleaf” value [7] was 2. The “Effects Blackgrass” value [8] was 4, the “Effects Barnyardgrass” value [9] was 2 and the “Effects Velvetleaf” value [10] was 1. The “Effect Barnyardgrass” value [11] was 5, the “Effects Large crabgrass” value [12] was 2 and the “Effects Barnyardgrass” value [13] was 4. The “Effects Livid amaranth” value [14] was 4.

In the case of `CCC(Oc1cccc(C(F)(F)F)c1)c1nc2cc(C#N)c(C#N)cc2o1` (stereo not drawn) [Compound 315], the “Effects Annual bluegrass” value [3] is reported as 2, the “Effect Bulrush” value [4] is reported as 2 and the “Effects Large crabgrass” value [5] is reported as 5. The “Effects Common lambsquarters” value [6] was 5, the “Effects Velvetleaf” value [7] was 4 and the “Effects Blackgrass” value [8] was 5. The “Effects Velvetleaf” value [10] was 5, the “Effect Barnyardgrass” value [11] was 3 and the “Effects Large crabgrass” value [12] was 2. For the same compound, the “Effects Barnyardgrass” value [13] was 4 and the “Effects Livid amaranth” value [14] was 5.

In the case of `CCCC(Oc1cccc(C(F)(F)F)c1)c1nc2cc(Cl)ccc2o1` (stereo not drawn) [Compound 142, 1-(5-chlorobenzoxazol-2-yl)-1-(3-(trifluoromethyl)phenoxy)butane], the “Effects Soybean” value [1] is reported as 4, the “Effects Cotton” value [2] is reported as 3 and the “Effects Annual bluegrass” value [3] is reported as 3. The “Effect Bulrush” value [4] was 3, the “Effects Large crabgrass” value [5] was 5 and the “Effects Common lambsquarters” value [6] was 4. For the same compound, the “Effects Velvetleaf” value [7] was 3, the “Effects Blackgrass” value [8] was 5 and the “Effects Barnyardgrass” value [9] was 2. The “Effects Velvetleaf” value [10] was 5, the “Effect Barnyardgrass” value [11] was 3 and the “Effects Large crabgrass” value [12] was 3. For the same compound, the “Effects Barnyardgrass” value [13] was 3 and the “Effects Livid amaranth” value [14] was 4.

`CC(Oc1ccc(F)c(C(F)(F)F)c1)c1nc2cc(Cl)ccc2o1` (stereo not drawn) [Compound 137] was tested, and the “Effects Soybean” value [1] was 3, the “Effects Cotton” value [2] was 2 and the “Effect Bulrush” value [4] was 3. The “Effects Large crabgrass” value [5] was 5, the “Effects Velvetleaf” value [7] was 1 and the “Effects Blackgrass” value [8] was 3. The “Effect Barnyardgrass” value [11] was 3, the “Effects Large crabgrass” value [12] was 1 and the “Effects Barnyardgrass” value [13] was 3. The “Effects Livid amaranth” value [14] was 4.

With `CCC(Oc1cccc(C#N)c1)c1nc2cc(F)c(Cl)cc2o1` (stereo not drawn) [Compound 498] the “Effects Annual bluegrass” value [3] was 2, the “Effect Bulrush” value [4] was 3 and the “Effects Large crabgrass” value [5] was 5. For the same compound, the “Effects Velvetleaf” value [7] was 2, the “Effects Blackgrass” value [8] was 4 and the “Effects Velvetleaf” value [10] was 3. For the same compound, the “Effect Barnyardgrass” value [11] was 3, the “Effects Large crabgrass” value [12] was 3 and the “Effects Barnyardgrass” value [13] was 3. For the same compound, the “Effects Livid amaranth” value [14] was 4.

With `CCC(Oc1cccc(C(F)(F)F)c1)c1nc2cc(Cl)c(C)cc2o1` (stereo not drawn) [Compound 339, 1-(5-chloro-6-methylbenzoxazol-2-yl)-1-(3-(trifluoromethyl)phenoxy)propane] the “Effects Soybean” value [1] was 3, the “Effects Cotton” value [2] was 3 and the “Effects Annual bluegrass” value [3] was 2. The “Effect Bulrush” value [4] was 4, the “Effects Large crabgrass” value [5] was 5 and the “Effects Common lambsquarters” value [6] was 4. For the same compound, the “Effects Velvetleaf” value [7] was 2, the “Effects Blackgrass” value [8] was 3 and the “Effects Barnyardgrass” value [9] was 2. The “Effects Velvetleaf” value [10] was 4, the “Effect Barnyardgrass” value [11] was 4 and the “Effects Large crabgrass” value [12] was 3. The “Effects Barnyardgrass” value [13] was 3 and the “Effects Livid amaranth” value [14] was 4.

With `CCC(Oc1ccc(F)c(C(F)(F)F)c1)c1nc2cc(C(F)(F)F)ccc2o1` (stereo not drawn) [Compound 197] the “Effects Soybean” value [1] was 5, the “Effects Cotton” value [2] was 3 and the “Effects Annual bluegrass” value [3] was 2. The “Effects Large crabgrass” value [5] was 5, the “Effects Common lambsquarters” value [6] was 4 and the “Effects Velvetleaf” value [7] was 3. For the same compound, the “Effects Blackgrass” value [8] was 5, the “Effects Barnyardgrass” value [9] was 1 and the “Effects Velvetleaf” value [10] was 5. For the same compound, the “Effect Barnyardgrass” value [11] was 4, the “Effects Large crabgrass” value [12] was 3 and the “Effects Barnyardgrass” value [13] was 5. The “Effects Livid amaranth” value [14] was 4.

With `CCCC(Oc1cccc(C(F)(F)F)c1)c1nc2cc(F)c(Cl)cc2o1` (stereo not drawn) [Compound 497] the “Effects Cotton” value [2] was 2, the “Effects Annual bluegrass” value [3] was 2 and the “Effect Bulrush” value [4] was 2. For the same compound, the “Effects Large crabgrass” value [5] was 5, the “Effects Common lambsquarters” value [6] was 2 and the “Effects Velvetleaf” value [7] was 3. For the same compound, the “Effects Velvetleaf” value [10] was 3, the “Effect Barnyardgrass” value [11] was 4 and the “Effects Large crabgrass” value [12] was 2. The “Effects Livid amaranth” value [14] was 5.
